Laboratory results reported in patent publication US20180133203A1, “METHODS OF TREATING LIVER DISEASE” (Gilead Sciences, Inc., priority 2016, published 2018).

Tests used:
Col1a1 = assay: Hepatic expression of Col1a1 by qRT-PCR, CDHFD/NaNO2 rat model of NASH; assay type: in vivo, male Wistar rats; settings: vs vehicle; rats; Formula (I) 0.2% in diet, Formula (III) 30 mg/kg/day, week 4 to 14
Description: (§1) The following study was conducted to evaluate the efficacy of the combination of an ASK1 inhibitor and an FXR agonist in a rodent model of non-alcoholic steatohepatitis (NASH), relative to the efficacy of the individual agents alone in the model. NASH was induced in male Wistar rats by administration of a choline-deficient high fat diet (CDHFD) combined with the chronic administration of sodium nitrite (CDHFD/NaNO2). The model capitalizes on the “two hit theory” of NASH by inducing both metabolic dysfunction (CDHFD) and oxidative stress (NaNO2) in the liver to result in hepatic fibrosis that is similar in character and severity to that seen in patients with advanced NASH. […] The following endpoints were assessed at the completion of the 14 week study: i) liver fibrosis measured by liver hydroxyproline (OHP) content and by quantitative morphometric analysis of collagen content by Picosirius red (PSR) staining; ii) myofibroblast activation in liver sections as measured by quantitative IHC of the myofibroblast marker desmin; and, iii) Col1a1 and Timp1 in liver tissue measured by RT-PCR. […] All endpoints were assessed at the completion of the 14 week study protocol. […] Quantitative PCR was performed and analyzed using Absolute QPCR Rox Mix (Life Technologies, Cat No # AB-1132) and a 384-format ABI 7900HT Sequence Detection System (Applied Biosystems). […]

TIMP-1 = assay: Hepatic expression of TIMP-1 by qRT-PCR, CDHFD/NaNO2 rat model of NASH; assay type: in vivo, male Wistar rats; settings: vs vehicle; rats; Formula (I) 0.2% in diet, Formula (III) 30 mg/kg/day, week 4 to 14
Description: as §1

FFD mice = assay: Total liver cholesterol content in FFD mouse model of NASH; assay type: in vivo, male C57BL/6 mice; settings: Formula (I) 0.15% admixture in diet, Formula (III) 10 mg/kg PO QD, months 7-10
Description: The following study was conducted to evaluate the efficacy of the combination of an ASK1 inhibitor and an FXR agonist in a mouse model of non-alcoholic steatohepatitis (NASH), relative to the efficacy of the individual agents alone in the model. NASH was induced in male C57BL/6 mice by chronic administration of a “fast food” diet (FFD) high in saturated fats, cholesterol and sugars for a total of 10 months, whereas lean control animals were maintained on a normal chow diet. A NASH phenotype was established in FFD mice compared to control mice by 7 months, and was characterized by obesity, hypercholesterolemia, and AST/ALT elevation; and by histological features of NASH such as hepatocellular macrovesicular steatosis and ballooning degeneration. […] Endpoint analyses included morphometric quantification of liver steatosis (% of steatotic area), liver cholesterol content, serum ALT/AST levels, serum bile acid levels, and nanostring evaluation of gene expression. […] After centrifugation, an aliquot of the organic upper layer, containing cholesterol and cholesterol esters, was analyzed. […] The peak area of the m/z 369 [M-H2O]+→161+ product ion of cholesterol was measured against the peak area of the cholesterol-D6 product ion of m/z 375 [M-H2O]+→167+. […]

SMILES	reduction of hepatic Col1a1 expression induced by CDHFD/NaNO2 (Col1a1) [%]	reduction of hepatic TIMP-1 expression induced by CDHFD/NaNO2 (TIMP-1)	reduction of liver cholesterol content (FFD mice) [%]
O=C(O)c1ccnc(N2CC(O)(c3ccc(OCc4c(-c5c(Cl)cccc5Cl)noc4C4CC4)cc3Cl)C2)c1 [Formula (III)]	44	did not significantly reduce	36
O=C(Nc1cccc(-c2nncn2C2CC2)c1)c1cc(-n2cnc(C3CC3)c2)ccn1 [Formula (I)]	65	28%	74
